Measured values taken from ChEMBL document CHEMBL4382249, “1-Arylsulfonyl indoline-benzamides as a new antitubulin agents, with inhibition of histone deacetylase” (Eur J Med Chem, 2019).
Calls of active or inactive are those of the source. The rule behind the calls is not given here.

Key:
[1] = biological target: T1, Protein deacetylase HDAC6 (Homo sapiens) (UniProt Q9UBN7); experiment: Inhibition of human HDAC6 in human A549 cells assessed as increase in acetylated alpha-tubulin level at 0.6 to […] after 6 hrs by Western blot analysis; type: cell-based
T1 sequence (whole entry): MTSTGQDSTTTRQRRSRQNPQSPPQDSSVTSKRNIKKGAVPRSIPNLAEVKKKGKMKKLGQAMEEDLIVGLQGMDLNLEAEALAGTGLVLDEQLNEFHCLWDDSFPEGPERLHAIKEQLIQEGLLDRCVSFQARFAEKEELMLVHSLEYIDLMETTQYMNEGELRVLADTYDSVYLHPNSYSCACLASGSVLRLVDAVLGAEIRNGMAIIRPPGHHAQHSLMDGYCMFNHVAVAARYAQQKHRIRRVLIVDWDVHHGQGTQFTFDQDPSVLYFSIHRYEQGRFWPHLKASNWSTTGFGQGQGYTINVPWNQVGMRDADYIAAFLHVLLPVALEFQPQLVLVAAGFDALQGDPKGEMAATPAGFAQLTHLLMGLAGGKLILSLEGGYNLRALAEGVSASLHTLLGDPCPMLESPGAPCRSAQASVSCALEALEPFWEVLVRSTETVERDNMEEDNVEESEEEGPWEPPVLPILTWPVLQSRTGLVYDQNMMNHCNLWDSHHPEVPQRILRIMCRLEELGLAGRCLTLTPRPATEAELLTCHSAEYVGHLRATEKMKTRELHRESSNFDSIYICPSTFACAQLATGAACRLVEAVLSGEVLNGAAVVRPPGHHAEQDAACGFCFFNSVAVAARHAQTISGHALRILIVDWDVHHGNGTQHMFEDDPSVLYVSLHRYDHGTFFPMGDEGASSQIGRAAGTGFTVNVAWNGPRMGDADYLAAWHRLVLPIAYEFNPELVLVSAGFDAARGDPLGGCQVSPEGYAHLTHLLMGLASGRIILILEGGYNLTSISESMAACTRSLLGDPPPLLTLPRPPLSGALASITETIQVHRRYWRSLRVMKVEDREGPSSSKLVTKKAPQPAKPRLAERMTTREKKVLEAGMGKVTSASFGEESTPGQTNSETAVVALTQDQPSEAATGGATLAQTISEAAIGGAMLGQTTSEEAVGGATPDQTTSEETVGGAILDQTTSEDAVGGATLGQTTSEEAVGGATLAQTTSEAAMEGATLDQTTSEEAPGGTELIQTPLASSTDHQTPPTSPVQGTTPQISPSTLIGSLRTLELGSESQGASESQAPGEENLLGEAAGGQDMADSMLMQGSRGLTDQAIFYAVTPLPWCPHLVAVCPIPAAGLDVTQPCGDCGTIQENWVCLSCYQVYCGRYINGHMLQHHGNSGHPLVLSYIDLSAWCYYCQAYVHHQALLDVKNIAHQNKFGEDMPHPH

[2] = biological target: Tubulin (Bos taurus, UniProt Q6B856+Q862L2+Q862F3)
[3] = biological target: Histone deacetylase 2 (Homo sapiens, UniProt Q92769); experiment: Inhibition of human HDAC2 using RHKKAc as substrate by fluorescence assay
[4] = biological target: Histone deacetylase 3 (Homo sapiens, UniProt O15379)
[5] = Toxicity in nude Balb/c mouse xenografted with human A549 cells assessed as change in body weight at 50 mg/kg, ip daily measured up to 18 days; type: organism-based; settings: in vivo, 432 h
[6] = system: BJAB; experiment: Antitumor activity against human BJAB cells xenografted in NOD/SCID mouse assessed as tumor growth inhibition at 50 mg/kg, iv daily for 5 days/week measured on day 25 post first dose; type: functional, organism-based
[7] = Toxicity in NOD/SCID mouse xenografted with human BJAB cells assessed as change in body weight at 50 mg/kg, iv daily for 5 days/week measured on day 25 post first dose; type: organism-based; settings: in vivo, 120 h
[8] = biological target: T2, Histone deacetylase 8 (Homo sapiens, UniProt Q9BY41)
T2 sequence (Q9BY41 whole entry): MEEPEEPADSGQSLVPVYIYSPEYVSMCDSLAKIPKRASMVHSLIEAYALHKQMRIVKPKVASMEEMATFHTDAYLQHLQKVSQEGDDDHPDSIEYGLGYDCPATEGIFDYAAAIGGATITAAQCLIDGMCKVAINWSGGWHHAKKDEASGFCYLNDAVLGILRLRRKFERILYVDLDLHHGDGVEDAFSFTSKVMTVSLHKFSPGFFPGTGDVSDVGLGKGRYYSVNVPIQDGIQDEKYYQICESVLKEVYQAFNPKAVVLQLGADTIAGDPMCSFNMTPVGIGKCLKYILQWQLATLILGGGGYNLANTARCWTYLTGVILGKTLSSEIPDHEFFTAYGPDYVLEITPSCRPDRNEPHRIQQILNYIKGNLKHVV

[9] = system: BJAB; experiment: Growth inhibition of human BJAB cells after 48 hrs by MTT assay
[10] = system: BJAB; experiment: Growth inhibition of human BJAB cells assessed as cell viability at 5 nM after 48 hrs by MTT assay (reference value: 100%)
[11] = system: BJAB; experiment: Growth inhibition of human BJAB cells assessed as cell viability at 10 nM after 48 hrs by MTT assay (reference value: 100%)
[12] = system: BJAB; experiment: Growth inhibition of human BJAB cells assessed as cell viability at 20 nM after 48 hrs by MTT assay (reference value: 100%)
[13] = system: BJAB; experiment: Growth inhibition of human BJAB cells assessed as cell viability at 40 nM after 48 hrs by MTT assay (reference value: 100%)
[14] = system: BJAB; experiment: Growth inhibition of human BJAB cells assessed as cell viability at 80 nM after 48 hrs by MTT assay (reference value: 100%)

Chain of Histone deacetylase 2 (Q92769 whole entry): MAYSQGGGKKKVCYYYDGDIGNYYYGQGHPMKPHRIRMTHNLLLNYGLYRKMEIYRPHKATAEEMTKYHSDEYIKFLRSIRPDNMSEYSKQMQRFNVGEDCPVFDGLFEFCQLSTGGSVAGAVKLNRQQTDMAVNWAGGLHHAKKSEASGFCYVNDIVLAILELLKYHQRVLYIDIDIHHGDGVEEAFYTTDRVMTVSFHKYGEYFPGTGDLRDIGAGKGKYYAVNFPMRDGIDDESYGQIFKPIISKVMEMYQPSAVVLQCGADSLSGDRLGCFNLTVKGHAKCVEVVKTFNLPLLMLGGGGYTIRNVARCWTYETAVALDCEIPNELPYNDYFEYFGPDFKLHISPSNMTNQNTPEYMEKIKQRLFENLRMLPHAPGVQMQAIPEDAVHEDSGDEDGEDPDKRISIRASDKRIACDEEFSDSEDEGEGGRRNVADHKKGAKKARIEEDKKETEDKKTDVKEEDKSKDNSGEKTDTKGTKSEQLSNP
Chain of Histone deacetylase 3 (O15379 whole entry): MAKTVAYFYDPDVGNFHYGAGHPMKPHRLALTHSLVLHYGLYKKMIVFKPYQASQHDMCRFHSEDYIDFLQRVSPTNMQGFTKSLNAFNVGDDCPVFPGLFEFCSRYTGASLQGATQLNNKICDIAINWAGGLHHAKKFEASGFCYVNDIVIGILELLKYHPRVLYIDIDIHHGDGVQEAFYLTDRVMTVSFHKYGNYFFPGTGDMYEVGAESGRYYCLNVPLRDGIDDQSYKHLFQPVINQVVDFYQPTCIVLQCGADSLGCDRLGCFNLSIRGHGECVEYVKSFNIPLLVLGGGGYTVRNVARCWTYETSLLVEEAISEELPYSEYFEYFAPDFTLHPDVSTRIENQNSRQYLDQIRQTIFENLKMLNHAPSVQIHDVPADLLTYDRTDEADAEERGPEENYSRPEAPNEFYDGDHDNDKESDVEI

Q: Which inhibition [1] does the source give for `COc1ccc(S(=O)(=O)N2CCc3cccc(NCc4ccc(C(=O)Nc5ccccc5N)cc4)c32)cc1` here?
A: Active

Q: And the IC50 [2]?
A: 1100 nM

Q: And the IC50 [3]?
A: 662 nM

Q: What about the IC50 [4] of the same molecule?
A: Not Active

Q: And the Activity [5]?
A: Non-Toxic

Q: What about the TGI [6] of the same molecule?
A: Active

Q: What about the Activity [7] of the same molecule?
A: Non-Toxic

Q: And the IC50 [8]?
A: Not Active

Q: And the IC50 [9]?
A: 40 nM

Q: And the viability at 0.005 µM [10]?
A: 71%

Q: What about the viability at 0.01 µM [11] of the same molecule?
A: 69%

Q: What about the viability at 0.02 µM [12] of the same molecule?
A: 70%

Q: What about the viability at 0.04 µM [13] of the same molecule?
A: 50%

Q: What about the viability at 0.08 µM [14] of the same molecule?
A: 22%
